Tests used:
microglia (OX-42) = experiment: Microglial activation in spinal cord of SNI model, OX-42 staining; format: in vivo, Sprague-Dawley rats; conditions: spinal cord L4-L5, 4 weeks after nerve injury
Procedure: To be used as a peripheral nerve injury animal model, a sciatic nerve injury (SNI) model was prepared (FIG. 1C). Specifically, 200 to 220 g of male adult Sprague-Dawley rats were anesthetized by intraperitoneal injection of chloral hydrate (500 mg/kg), and then three terminal branches (tibial, common peroneal, and sural nerves) of the right sciatic nerve were approached, and the tibia nerve and the peroneal nerve were tightly ligated with 4-0 silk, and neurectomy was performed at a distal 3 mm position of the ligation site. At this time, a Sham group was a group that exposed only the sciatic nerve without damage.
To analyze the activation of microglia in the spinal cord, which were known to play an important role in the induction/persistence of neuropathic pain, 4 weeks after nerve injury in the SNI animal model, the spinal cord of 4 and 5 lumbar vertebrae was stained with OX-42 to confirm changes in cell shape and intensity. […] The supernatant was transferred to a new microcentrifuge, the protein concentration was measured using a BCA kit, and samples for Western blot were prepared by adding a 1× sample buffer and boiling for 5 minutes. […]

[1] = system: inflammatory factors in Raw 264.7 cell line; experiment: Inflammatory factor mRNA in LPS-stimulated Raw 264.7 macrophage cell line, RT-PCR; format: cell-based; conditions: LPS-treated Raw 264.7, RT-PCR
Procedure: In order to determine whether YJ102 affected the production of proNGF as a ligand of p75, the expression of proNGF in the bladder was confirmed by RT-PCR, Western blot analysis, and immunofluorescence staining. In addition, for further verification, a macrophage cell line Raw 264.7 (Korea Cell Line Bank, Seoul, Korea) was stimulated with 1 μg/ml of LPS, and the effect of YJ102 on the production of proNGF was investigated. At this time, YJ102 was dissolved in DMSO and treated 30 minutes before LPS treatment.
To confirm the effect of YJ102 on the expression of inflammatory factors in the bladder after spinal cord injury, the expression of inflammatory cytokines and chemokines, COX-2, iNOS, IL-6, IL-1β, MIP-1α, MIP-1β, MIP-2a, and Gro-α in bladder tissue was confirmed by RT-PCR analysis and Western blot analysis using the primers in Table 2 above. In addition, even in the Raw 264.7 cell line, the expression was verified by RT-PCR analysis.

[2] = system: ED-1-positive macrophages; experiment: Introduction of macrophages (ED-1) into bladder of SCI model, immunofluorescence; format: in vivo, Sprague-Dawley rats; conditions: day 7 after SCI

CCc1ccc(N(C(=O)COC)c2nc3cc(Cl)ccc3o2)cc1 [YJ102]
microglia activation changes (OX-42 intensity) (microglia (OX-42)): significantly reduced | mRNA level of COX-2 [1]: significantly reduced | mRNA level of IL-1β [1]: significantly reduced | mRNA level of IL-6 [1]: significantly reduced | mRNA level of TNF-α [1]: significantly reduced | mRNA level of iNOS [1]: significantly reduced | introduction of ED-1-positive macrophages into the bladder [2]: significantly inhibited
